In brackets after ≈: the same amount, converted by molar mass.
Legend:
E. coli 12140 = experiment: In vivo mouse protection (Table 2), E. coli 12140
Source text: (§1) Compound names corresponding to numbers are given in the experimental section. For comparative purposes, data for cephamandole, which is 7-mandelamido-3-(1-methyltetrazol-5-ylthiomethyl)-3-cephem-4-carboxylic acid, is also given in Tables 1 and 2.

E. coli SK 12140 = experiment: MIC in vitro (Table 1), E. coli SK 12140; type: cell-based; conditions: Escherichia coli, SK12140, in vitro, read-out: MIC
Source text: as §1

S. aureus SK 23390 = experiment: MIC in vitro (Table 1), S. aureus SK 23390; type: cell-based; conditions: Staphylococcus aureus, SK23390, in vitro, S. aureus SK 23390; read-out: MIC
Source text: as §1

Kleb. pneumo. 4200 = experiment: In vivo mouse protection (Table 2), Kleb. pneumo. 4200
Source text: as §1

Pseudo. sp. HH 63 = experiment: MIC in vitro (Table 1), Pseudo. sp. HH 63; type: cell-based
Source text: as §1, with “The compounds of Formula I have antibacterial activity against both Gram-positive and Gram-negative organisms. […] Compound” for “Compound”

Shigella HH 117 = experiment: MIC in vitro (Table 1), Shigella HH 117; type: cell-based; conditions: Shigella, HH117, in vitro
Source text: as §1, with “The compounds of Formula I have antibacterial activity against both Gram-positive and Gram-negative organisms. […] Compound” for “Compound”

Proteus morgani 179 = experiment: MIC in vitro (Table 1), Proteus morgani 179; type: cell-based; conditions: read-out: MIC
Source text: as §1

Serra. Marc. ATCC 13880 = experiment: MIC in vitro (Table 1), Serra. Marc. ATCC 13880; type: cell-based; conditions: in vitro, Serra. Marc. ATCC 13880; read-out: MIC
Source text: as §1

E. coli HH 33779 = experiment: MIC in vitro (Table 1), E. coli HH 33779; type: cell-based; conditions: Escherichia coli, HH33779, in vitro, E. coli HH 33779; read-out: MIC
Source text: as §1

Salmonella ATCC 12176 = experiment: MIC in vitro (Table 1), Salmonella ATCC 12176; type: cell-based; conditions: Salmonella, ATCC12176, in vitro
Source text: as §1, with “The compounds of Formula I have antibacterial activity against both Gram-positive and Gram-negative organisms. […] Compound” for “Compound”

Kleb. pneumo. SK 1200 = experiment: MIC in vitro (Table 1), Kleb. pneumo. SK 1200; type: cell-based; conditions: read-out: MIC
Source text: as §1

[1] = tested on: Entero. aerog. ATCC 13048; experiment: MIC in vitro (Table 1), Entero. aerog. ATCC 13048; type: cell-based; conditions: in vitro, Entero. aerog. ATCC 13048; read-out: MIC
Source text: as §1

S. villaluz = experiment: MIC in vitro (Table 1), S. villaluz; type: cell-based
Source text: as §1, with “The compounds of Formula I have antibacterial activity against both Gram-positive and Gram-negative organisms. […] Compound” for “Compound”

Entero. cloacae HH 31254 = experiment: MIC in vitro (Table 1), Entero. cloacae HH 31254; type: cell-based; conditions: Enterobacter cloacae, HH31254, in vitro, Entero. cloacae HH 31254; read-out: MIC
Source text: as §1

Kleb. pneumo. SK 4200 = experiment: MIC in vitro (Table 1), Kleb. pneumo. SK 4200; type: cell-based; conditions: in vitro, Kleb. pneumo. SK 4200; read-out: MIC
Source text: as §1

S. aureus HH 127 = experiment: MIC in vitro (Table 1), S. aureus HH 127; type: cell-based; conditions: Staphylococcus aureus, HH127, in vitro, S. aureus HH 127; read-out: MIC
Source text: as §1

Strep. Faecalis HH 34358 = experiment: MIC in vitro (Table 1), Strep. Faecalis HH 34358; type: cell-based; conditions: Enterococcus faecalis, in vitro, Strep. Faecalis HH 34358; read-out: MIC
Source text: as §1

Work on `Cn1nnnc1SCC1=C(C(=O)O)N2C(=O)C(NC(=O)C(O)c3ccccc3)[C@H]2SC1` (stereo partly shown) [cephamandole, 7-mandelamido-3-(1-methyltetrazol-5-ylthiomethyl)-3-cephem-4-carboxylic acid, reference compound] yielded an ED50 (E. coli 12140; Escherichia coli, 12140, po, E. coli 12140, p.o.) of 28 mg/kg, an ED50 (E. coli 12140; Escherichia coli, 12140, sc, E. coli 12140, s.c.) of less than 2 mg/kg and an MIC (E. coli SK 12140) of 1.1 µg/mL (≈ 2.38 µM). For the same compound, the MIC (S. aureus SK 23390) was 0.6 µg/mL (≈ 1.3 µM), the ED50 (Kleb. pneumo. 4200; po, Kleb. pneumo. 4200, p.o.) was greater than 50 mg/kg and the ED50 (Kleb. pneumo. 4200; sc, Kleb. pneumo. 4200, s.c.) was 0.96 mg/kg. For the same compound, the MIC (Pseudo. sp. HH 63) was greater than 200 µg/mL, the MIC (Shigella HH 117) was 0.2 µg/mL (≈ 0.432 µM) and the MIC (Proteus morgani 179) was 1.3 µg/mL (≈ 2.81 µM). It also gave an MIC (Serra. Marc. ATCC 13880) of 13 µg/mL (≈ 28.1 µM), an MIC (E. coli HH 33779) of 2.6 µg/mL (≈ 5.62 µM) and an MIC (Salmonella ATCC 12176) of 0.6 µg/mL (≈ 1.3 µM). For the same compound, the MIC (Kleb. pneumo. SK 1200) was 0.6 µg/mL (≈ 1.3 µM), the MIC [1] was 2.9 µg/mL (≈ 6.27 µM) and the MIC (S. villaluz) was 8 µg/mL (≈ 17.3 µM). For the same compound, the MIC (Entero. cloacae HH 31254) was 0.7 µg/mL (≈ 1.51 µM), the MIC (Kleb. pneumo. SK 4200) was 1.1 µg/mL (≈ 2.38 µM) and the MIC (S. aureus HH 127) was 1 µg/mL (≈ 2.16 µM). For the same compound, the MIC (Strep. Faecalis HH 34358) was 2.3 µg/mL (≈ 4.97 µM).

Reference: patent US4220644A, “7-Acylamino-3-(substituted tetrazolyl thiomethyl) cephalosporins” (SmithKline Corporation, priority 1976, dated 1980)
